According to ChEMBL document CHEMBL3885881, “DrugMatrix”:

Species: Rattus norvegicus
Assay: DrugMatrix - Regimen: Daily Repeat
Format: toxicity, organism-based, Sprague-Dawley
Set-up: regimen Daily Repeat, gender Male, age 6-8 weeks
Details: in vivo, po, 1 mg/kg, route oral GAVAGE, dose level Low, vehicle .5 % CMC; for ABSOLUTE BASOPHIL / ABSOLUTE EOSINOPHIL / ABSOLUTE LYMPHOCYTE / ABSOLUTE MONOCYTE / ABSOLUTE SEGMENTED NEUTROPHIL / BASOPHIL / EOSINOPHIL / ERYTHROCYTE COUNT / HEMATOCRIT / HEMOGLOBIN / LEUKOCYTE COUNT / LYMPHOCYTE / MEAN CORPUSCULAR HEMOGLOBIN / MEAN CORPUSCULAR HEMOGLOBIN CONCENTRATION / MEAN CORPUSCULAR VOLUME / MONOCYTE / NEUTROPHIL / NUCLEATED RED BLOOD CELLS / PLATELET COUNT: tissue Blood; for ALANINE AMINOTRANSFERASE / ALBUMIN / ALKALINE PHOSPHATASE / ASPARTATE AMINOTRANSFERASE / BLOOD UREA NITROGEN / CARBON DIOXIDE / CHLORIDE / CHOLESTEROL / CREATINE PHOSPHOKINASE / CREATININE / GLUCOSE / LACTATE DEHYDROGENASE / LIPASE / PHOSPHORUS / POTASSIUM / SODIUM / TOTAL BILIRUBIN / TOTAL PROTEIN / URIC ACID: tissue Plasma

With `CCOC(=O)[C@H](CCc1ccccc1)N[C@@H](C)C(=O)N1[C@H](C(=O)O)C[C@@H]2CCC[C@@H]21` the “ABSOLUTE BASOPHIL” value (72 h, time 3 day) was 0 CELLS/uL, the “ABSOLUTE EOSINOPHIL” value (72 h, time 3 day) was 0 CELLS/uL and the “ABSOLUTE LYMPHOCYTE” value (72 h, time 3 day) was 13012 CELLS/uL. The “ABSOLUTE MONOCYTE” value (72 h, time 3 day) was 125.67 CELLS/uL, the “ABSOLUTE SEGMENTED NEUTROPHIL” value (72 h, time 3 day) was 829 CELLS/uL and the BASOPHIL (72 h, time 3 day) was 0%. For the same molecule, the EOSINOPHIL (72 h, time 3 day) was 0%, the “ERYTHROCYTE COUNT” value (72 h, time 3 day) was 5.51 x10E6/uL and the HEMATOCRIT (72 h, time 3 day) was 35.1%. The HEMOGLOBIN (72 h, time 3 day) was 14.07 G/DL, the “LEUKOCYTE COUNT” value (72 h, time 3 day) was 13.97 x10E3/uL and the LYMPHOCYTE (72 h, time 3 day) was 92.67%. For the same molecule, the “MEAN CORPUSCULAR HEMOGLOBIN” value (72 h, time 3 day) was 25.53 pg, the “MEAN CORPUSCULAR HEMOGLOBIN CONCENTRATION” value (72 h, time 3 day) was 40.07 G/DL and the “MEAN CORPUSCULAR VOLUME” value (72 h, time 3 day) was 63.73 fL. The MONOCYTE (72 h, time 3 day) was 1%, the NEUTROPHIL (72 h, time 3 day) was 6.33% and the “NUCLEATED RED BLOOD CELLS” value (72 h, time 3 day) was 0 /100WBC. The “PLATELET COUNT” value (72 h, time 3 day) was 1322.67 x10E3/uL, the “ALANINE AMINOTRANSFERASE” value (72 h, time 3 day) was 44.33 u/L and the ALBUMIN (72 h, time 3 day) was 4.53 G/DL. For the same molecule, the “ALKALINE PHOSPHATASE” value (72 h, time 3 day) was 320.33 u/L, the “ASPARTATE AMINOTRANSFERASE” value (72 h, time 3 day) was 82 u/L and the “BLOOD UREA NITROGEN” value (72 h, time 3 day) was 17 mg/dL. For the same molecule, the “CARBON DIOXIDE” value (72 h, time 3 day) was 28 mmol/L, the CHLORIDE (72 h, time 3 day) was 100.33 MEQ/L and the CHOLESTEROL (72 h, time 3 day) was 74.33 mg/dL. The “CREATINE PHOSPHOKINASE” value (72 h, time 3 day) was 223 u/L, the CREATININE (72 h, time 3 day) was 0.15 mg/dL and the GLUCOSE (72 h, time 3 day) was 156.33 mg/dL. For the same molecule, the “LACTATE DEHYDROGENASE” value (72 h, time 3 day) was 243 u/L, the LIPASE (72 h, time 3 day) was 9.33 u/L and the PHOSPHORUS (72 h, time 3 day) was 13.7 mg/dL. For the same molecule, the POTASSIUM (72 h, time 3 day) was 7.23 MEQ/L, the SODIUM (72 h, time 3 day) was 146.6 MEQ/L and the “TOTAL BILIRUBIN” value (72 h, time 3 day) was 0.27 mg/dL. For the same molecule, the “TOTAL PROTEIN” value (72 h, time 3 day) was 6.27 G/DL, the “URIC ACID” value (72 h, time 3 day) was 1.87 mg/dL and the “ABSOLUTE BASOPHIL” value (120 h, time 5 day) was 0 CELLS/uL. For the same molecule, the “ABSOLUTE EOSINOPHIL” value (120 h, time 5 day) was 73 CELLS/uL, the “ABSOLUTE LYMPHOCYTE” value (120 h, time 5 day) was 14658 CELLS/uL and the “ABSOLUTE MONOCYTE” value (120 h, time 5 day) was 332.67 CELLS/uL. For the same molecule, the “ABSOLUTE SEGMENTED NEUTROPHIL” value (120 h, time 5 day) was 1636.33 CELLS/uL, the BASOPHIL (120 h, time 5 day) was 0% and the EOSINOPHIL (120 h, time 5 day) was 0.33%. The “ERYTHROCYTE COUNT” value (120 h, time 5 day) was 5.38 x10E6/uL, the HEMATOCRIT (120 h, time 5 day) was 35.13% and the HEMOGLOBIN (120 h, time 5 day) was 13.27 G/DL. For the same molecule, the “LEUKOCYTE COUNT” value (120 h, time 5 day) was 16.7 x10E3/uL, the LYMPHOCYTE (120 h, time 5 day) was 88.33% and the “MEAN CORPUSCULAR HEMOGLOBIN” value (120 h, time 5 day) was 24.7 pg. For the same molecule, the “MEAN CORPUSCULAR HEMOGLOBIN CONCENTRATION” value (120 h, time 5 day) was 37.8 G/DL, the “MEAN CORPUSCULAR VOLUME” value (120 h, time 5 day) was 65.37 fL and the MONOCYTE (120 h, time 5 day) was 1.67%. The NEUTROPHIL (120 h, time 5 day) was 9.67%, the “NUCLEATED RED BLOOD CELLS” value (120 h, time 5 day) was 0 /100WBC and the “PLATELET COUNT” value (120 h, time 5 day) was 1368.33 x10E3/uL. For the same molecule, the “ALANINE AMINOTRANSFERASE” value (120 h, time 5 day) was 58.33 u/L, the ALBUMIN (120 h, time 5 day) was 4.37 G/DL and the “ALKALINE PHOSPHATASE” value (120 h, time 5 day) was 395 u/L. The “ASPARTATE AMINOTRANSFERASE” value (120 h, time 5 day) was 74.67 u/L, the “BLOOD UREA NITROGEN” value (120 h, time 5 day) was 20 mg/dL and the “CARBON DIOXIDE” value (120 h, time 5 day) was 28.67 mmol/L. The CHLORIDE (120 h, time 5 day) was 101.67 MEQ/L, the CHOLESTEROL (120 h, time 5 day) was 69.67 mg/dL and the “CREATINE PHOSPHOKINASE” value (120 h, time 5 day) was 158.67 u/L. The CREATININE (120 h, time 5 day) was 0.2 mg/dL, the GLUCOSE (120 h, time 5 day) was 153.67 mg/dL and the “LACTATE DEHYDROGENASE” value (120 h, time 5 day) was 81.67 u/L. The LIPASE (120 h, time 5 day) was 8.33 u/L, the PHOSPHORUS (120 h, time 5 day) was 12.57 mg/dL and the POTASSIUM (120 h, time 5 day) was 6.7 MEQ/L. The SODIUM (120 h, time 5 day) was 146.17 MEQ/L, the “TOTAL BILIRUBIN” value (120 h, time 5 day) was 0.2 mg/dL and the “TOTAL PROTEIN” value (120 h, time 5 day) was 6.03 G/DL. The “URIC ACID” value (120 h, time 5 day) was 1.43 mg/dL.
